ChEMBL document CHEMBL3297725, “Acridone alkaloids from Glycosmis chlorosperma as DYRK1A inhibitors” (J Nat Prod, 2014)

Assays:
[1] = target: Dual specificity tyrosine-phosphorylation-regulated kinase 1A (Homo sapiens, UniProt Q13627); test: Inhibition of DYRK1A (unknown origin) assessed as inhibition of phosphate incorporation into substrate in presence of radiolabeled ATP
[2] = target: Cyclin-dependent kinase 1 (Homo sapiens, UniProt P06493); test: Inhibition of CDK1 (unknown origin) assessed as inhibition of phosphate incorporation into substrate in presence of radiolabeled ATP
[3] = target: Cyclin-dependent kinase 5 (Homo sapiens, UniProt Q00535); test: Inhibition of CDK5 (unknown origin) assessed as inhibition of phosphate incorporation into substrate in presence of radiolabeled ATP
[4] = target: Glycogen synthase kinase-3 (Homo sapiens, UniProt P49840+P49841); test: Inhibition of GSK3 (unknown origin) assessed as inhibition of phosphate incorporation into substrate in presence of radiolabeled ATP; assay type: protein assay
[5] = test system: Casein kinase 1 delta/epsilon (Sus scrofa); test: Inhibition of CK1 (porcine brain) assessed as inhibition of phosphate incorporation into substrate in presence of radiolabeled ATP
[6] = target: Dual specificity protein kinase CLK1 (Mus musculus) (UniProt P22518); test: Inhibition of CLK1 (mouse recombinant) assessed as inhibition of phosphate incorporation into substrate in presence of radiolabeled ATP
[7] = target: Dual specificity protein kinase CLK1 (Mus musculus, UniProt P22518); test: Inhibition of mouse recombinant GST-fused CLK1 expressed in Escherichia coli cells assessed as inhibition of phosphate incorporation using GRSRSRSRSRSR and [gamma-33P]ATP as substrate after 30 mins by scintillation counting analysis
[8] = target: Dual specificity tyrosine-phosphorylation-regulated kinase 1A (Rattus norvegicus, UniProt Q63470); test: Inhibition of rat DYRK1A assessed as inhibition of phosphate incorporation using GRSRSRSRSRSR and [gamma-33P]ATP as substrate after 30 mins by scintillation counting analysis
[9] = Inhibition of CDK1/cyclin B in starfish oocytes assessed as inhibition of phosphate incorporation using histone 1 and [gamma-33P]ATP as substrate after 30 mins by scintillation counting analysis; parameters: species or system Patiria pectinifera
[10] = target: CDK2/Cyclin A2 (Homo sapiens, UniProt P24941); test: Inhibition of CDK2/cyclin A (unknown origin); assay type: protein-complex assay
[11] = target: Cyclin-dependent kinase 5/CDK5 activator 1 (Homo sapiens, UniProt Q00535); test: Inhibition of CDK5/p25 (unknown origin) assessed as inhibition of phosphate incorporation using histone 1 and [gamma-33P]ATP as substrate after 30 mins by scintillation counting analysis; assay type: protein-complex assay
[12] = target: CDK9/cyclin T1 (Homo sapiens, UniProt P50750); test: Inhibition of CDK9/cyclin T (unknown origin); assay type: protein-complex assay
[13] = Inhibition of CK1 delta/epsilon in porcine brain assessed as inhibition of phosphate incorporation using RRKHAAIGpSAYSITA and [gamma-33P]ATP as substrate after 30 mins by scintillation counting analysis; parameters: species or system Sus scrofa
[14] = target: Dual specificity protein kinase CLK2 (Homo sapiens, UniProt P49760); test: Inhibition of CLK2 (unknown origin)
[15] = target: Dual specificity protein kinase CLK3 (Homo sapiens, UniProt P49761); test: Inhibition of CLK3 (unknown origin)
[16] = target: Dual specificity protein kinase CLK4 (Homo sapiens, UniProt Q9HAZ1); test: Inhibition of CLK4 (unknown origin)
[17] = target: Dual specificity tyrosine-phosphorylation-regulated kinase 1B (Homo sapiens, UniProt Q9Y463); test: Inhibition of DYRK1B (unknown origin)
[18] = target: T1, Dual specificity tyrosine-phosphorylation-regulated kinase 2 (Homo sapiens, UniProt Q92630); test: Inhibition of DYRK2 (unknown origin)
T1 sequence (Q92630 whole entry): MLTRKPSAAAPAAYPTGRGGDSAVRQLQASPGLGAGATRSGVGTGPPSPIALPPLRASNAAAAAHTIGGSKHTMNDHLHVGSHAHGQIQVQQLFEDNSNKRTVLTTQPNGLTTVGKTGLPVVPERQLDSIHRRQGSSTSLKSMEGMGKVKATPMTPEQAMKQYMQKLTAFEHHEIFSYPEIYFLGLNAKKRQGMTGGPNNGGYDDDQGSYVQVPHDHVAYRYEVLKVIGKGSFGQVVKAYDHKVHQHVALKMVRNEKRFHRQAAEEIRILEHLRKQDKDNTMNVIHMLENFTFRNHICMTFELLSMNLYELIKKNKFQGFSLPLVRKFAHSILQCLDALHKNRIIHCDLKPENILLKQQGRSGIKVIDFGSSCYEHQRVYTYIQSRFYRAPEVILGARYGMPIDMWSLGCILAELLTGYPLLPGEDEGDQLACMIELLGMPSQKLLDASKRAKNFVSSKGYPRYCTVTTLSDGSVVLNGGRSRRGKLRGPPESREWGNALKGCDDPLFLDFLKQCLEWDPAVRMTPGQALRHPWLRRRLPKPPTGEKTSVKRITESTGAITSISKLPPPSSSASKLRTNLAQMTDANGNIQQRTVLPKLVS

[19] = target: T2, Dual specificity tyrosine-phosphorylation-regulated kinase 3 (Homo sapiens, UniProt O43781); test: Inhibition of DYRK3 (unknown origin)
T2 sequence (O43781 whole entry): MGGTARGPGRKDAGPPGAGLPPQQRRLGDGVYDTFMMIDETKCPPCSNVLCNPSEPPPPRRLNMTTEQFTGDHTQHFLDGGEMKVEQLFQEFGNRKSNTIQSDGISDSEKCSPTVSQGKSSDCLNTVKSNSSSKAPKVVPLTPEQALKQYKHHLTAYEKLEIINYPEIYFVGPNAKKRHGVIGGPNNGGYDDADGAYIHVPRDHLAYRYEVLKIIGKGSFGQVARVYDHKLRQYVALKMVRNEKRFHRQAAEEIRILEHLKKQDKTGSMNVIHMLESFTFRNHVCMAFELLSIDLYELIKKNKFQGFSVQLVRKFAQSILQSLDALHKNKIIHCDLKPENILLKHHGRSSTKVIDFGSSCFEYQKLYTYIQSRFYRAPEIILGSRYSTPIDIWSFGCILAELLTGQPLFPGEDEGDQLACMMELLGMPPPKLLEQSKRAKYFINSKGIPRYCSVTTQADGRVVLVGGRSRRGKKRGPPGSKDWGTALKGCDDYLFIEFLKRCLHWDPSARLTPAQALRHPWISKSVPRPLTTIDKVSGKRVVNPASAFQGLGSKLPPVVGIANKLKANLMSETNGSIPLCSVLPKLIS

[20] = target: Glycogen synthase kinase-3 (Sus scrofa, UniProt B2LUN4+I6LNT8); test: Inhibition of GSK3 alpha/beta in porcine brain assessed as inhibition of phosphate incorporation using YRRAAVPPSPSLSRHSSPHQSpEDEEE and [gamma-33P]ATP as substrate after 30 mins by scintillation counting analysis

Chain of Cyclin-dependent kinase 5 (Q00535 whole entry): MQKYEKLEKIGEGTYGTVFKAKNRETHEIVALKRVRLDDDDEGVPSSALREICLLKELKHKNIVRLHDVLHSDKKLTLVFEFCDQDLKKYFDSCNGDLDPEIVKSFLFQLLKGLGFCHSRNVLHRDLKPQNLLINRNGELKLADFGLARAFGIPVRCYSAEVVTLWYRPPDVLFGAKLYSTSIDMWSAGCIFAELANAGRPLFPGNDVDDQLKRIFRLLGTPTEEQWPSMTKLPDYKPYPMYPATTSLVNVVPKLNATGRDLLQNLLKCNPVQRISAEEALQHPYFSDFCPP
Chain of Dual specificity protein kinase CLK1 (Mus musculus) (P22518 whole entry, looked up, the tested form may be a part): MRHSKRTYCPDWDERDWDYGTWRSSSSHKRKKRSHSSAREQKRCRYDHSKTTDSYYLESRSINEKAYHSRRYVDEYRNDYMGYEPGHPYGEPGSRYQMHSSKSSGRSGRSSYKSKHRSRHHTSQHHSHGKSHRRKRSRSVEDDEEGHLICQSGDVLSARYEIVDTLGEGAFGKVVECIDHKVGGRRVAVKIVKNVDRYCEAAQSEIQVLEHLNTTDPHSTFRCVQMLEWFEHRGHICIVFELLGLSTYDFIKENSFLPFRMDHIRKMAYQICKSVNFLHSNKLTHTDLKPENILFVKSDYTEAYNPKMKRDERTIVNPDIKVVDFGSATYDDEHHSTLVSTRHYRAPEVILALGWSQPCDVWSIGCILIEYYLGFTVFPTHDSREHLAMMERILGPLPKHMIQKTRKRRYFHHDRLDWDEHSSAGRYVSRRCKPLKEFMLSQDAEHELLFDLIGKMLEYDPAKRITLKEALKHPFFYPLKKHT
Chain of Cyclin-dependent kinase 1 (P06493 whole entry): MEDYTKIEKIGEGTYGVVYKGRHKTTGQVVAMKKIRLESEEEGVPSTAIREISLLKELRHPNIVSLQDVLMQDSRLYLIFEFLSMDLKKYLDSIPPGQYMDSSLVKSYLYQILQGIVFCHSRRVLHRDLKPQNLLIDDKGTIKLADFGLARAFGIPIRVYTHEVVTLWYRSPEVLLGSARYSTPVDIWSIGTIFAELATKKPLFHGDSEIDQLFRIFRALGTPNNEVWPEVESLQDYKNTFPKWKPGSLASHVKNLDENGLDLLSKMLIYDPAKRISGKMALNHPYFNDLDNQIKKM
Chain of Cyclin-dependent kinase 5/CDK5 activator 1 (Q00535 whole entry): as the sequence (Q00535 whole entry) above
Chain of Cyclin-dependent kinase 5/CDK5 activator 1 (Q15078 whole entry, further chain): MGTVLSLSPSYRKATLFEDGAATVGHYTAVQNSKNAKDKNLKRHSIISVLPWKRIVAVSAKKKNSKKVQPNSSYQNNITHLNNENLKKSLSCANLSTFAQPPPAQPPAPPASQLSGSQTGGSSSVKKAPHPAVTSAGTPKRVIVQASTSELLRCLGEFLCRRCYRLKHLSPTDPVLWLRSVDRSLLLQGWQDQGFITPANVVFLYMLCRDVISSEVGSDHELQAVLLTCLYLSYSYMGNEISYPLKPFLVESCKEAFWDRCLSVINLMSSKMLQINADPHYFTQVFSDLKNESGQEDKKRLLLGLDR
Chain of Dual specificity tyrosine-phosphorylation-regulated kinase 1B (Q9Y463 whole entry): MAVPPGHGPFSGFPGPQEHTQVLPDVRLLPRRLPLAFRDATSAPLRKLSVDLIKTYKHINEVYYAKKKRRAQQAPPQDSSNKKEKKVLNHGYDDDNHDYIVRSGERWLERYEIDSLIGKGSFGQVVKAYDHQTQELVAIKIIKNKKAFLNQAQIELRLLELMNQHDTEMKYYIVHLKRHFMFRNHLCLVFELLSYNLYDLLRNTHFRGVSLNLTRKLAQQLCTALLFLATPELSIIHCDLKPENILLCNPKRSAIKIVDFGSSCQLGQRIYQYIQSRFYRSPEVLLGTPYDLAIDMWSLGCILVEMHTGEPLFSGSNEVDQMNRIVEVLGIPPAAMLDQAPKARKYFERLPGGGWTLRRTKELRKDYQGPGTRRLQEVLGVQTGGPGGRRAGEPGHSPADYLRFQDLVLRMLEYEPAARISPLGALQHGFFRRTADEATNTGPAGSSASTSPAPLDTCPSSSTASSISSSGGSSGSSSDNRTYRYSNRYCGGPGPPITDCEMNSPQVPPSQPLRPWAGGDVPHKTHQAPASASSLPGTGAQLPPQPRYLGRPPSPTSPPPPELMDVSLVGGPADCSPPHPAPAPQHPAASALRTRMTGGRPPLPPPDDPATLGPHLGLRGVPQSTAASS
Chain of Dual specificity protein kinase CLK1 (P22518 whole entry, the tested form may be a part): as the sequence (P22518 whole entry, looked up, the tested form may be a part) above
Chain of CDK9/cyclin T1 (O60563 whole entry): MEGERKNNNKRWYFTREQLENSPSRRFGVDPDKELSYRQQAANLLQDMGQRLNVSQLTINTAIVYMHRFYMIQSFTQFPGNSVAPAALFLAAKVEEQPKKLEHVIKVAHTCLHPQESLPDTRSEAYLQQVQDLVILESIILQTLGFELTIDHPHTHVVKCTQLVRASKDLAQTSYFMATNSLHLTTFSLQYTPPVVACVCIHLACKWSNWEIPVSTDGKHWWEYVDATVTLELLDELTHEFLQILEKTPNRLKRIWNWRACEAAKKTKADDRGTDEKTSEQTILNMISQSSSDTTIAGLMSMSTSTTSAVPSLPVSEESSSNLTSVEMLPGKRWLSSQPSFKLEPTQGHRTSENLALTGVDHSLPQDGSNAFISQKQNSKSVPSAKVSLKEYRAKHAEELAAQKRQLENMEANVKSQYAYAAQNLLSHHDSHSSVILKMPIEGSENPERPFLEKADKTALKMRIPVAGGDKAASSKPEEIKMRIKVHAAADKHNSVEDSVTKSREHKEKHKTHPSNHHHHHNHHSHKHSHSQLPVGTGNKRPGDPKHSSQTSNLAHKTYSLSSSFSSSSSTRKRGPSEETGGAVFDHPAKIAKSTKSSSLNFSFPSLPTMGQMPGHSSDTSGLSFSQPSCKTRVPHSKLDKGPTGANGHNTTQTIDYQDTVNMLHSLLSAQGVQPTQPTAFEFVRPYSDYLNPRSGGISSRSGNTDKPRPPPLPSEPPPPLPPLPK
Chain of CDK9/cyclin T1 (P50750 whole entry): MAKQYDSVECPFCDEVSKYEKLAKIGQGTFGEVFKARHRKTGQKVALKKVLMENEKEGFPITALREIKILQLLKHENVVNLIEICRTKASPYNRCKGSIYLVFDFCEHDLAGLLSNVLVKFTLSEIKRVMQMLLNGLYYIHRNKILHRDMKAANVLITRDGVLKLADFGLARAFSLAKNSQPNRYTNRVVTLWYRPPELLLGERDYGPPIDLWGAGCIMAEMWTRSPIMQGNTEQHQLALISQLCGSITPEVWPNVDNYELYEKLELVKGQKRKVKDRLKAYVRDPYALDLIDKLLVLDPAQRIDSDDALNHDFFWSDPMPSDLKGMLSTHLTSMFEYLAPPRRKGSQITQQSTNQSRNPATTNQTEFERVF
Chain of Dual specificity protein kinase CLK2 (P49760 whole entry): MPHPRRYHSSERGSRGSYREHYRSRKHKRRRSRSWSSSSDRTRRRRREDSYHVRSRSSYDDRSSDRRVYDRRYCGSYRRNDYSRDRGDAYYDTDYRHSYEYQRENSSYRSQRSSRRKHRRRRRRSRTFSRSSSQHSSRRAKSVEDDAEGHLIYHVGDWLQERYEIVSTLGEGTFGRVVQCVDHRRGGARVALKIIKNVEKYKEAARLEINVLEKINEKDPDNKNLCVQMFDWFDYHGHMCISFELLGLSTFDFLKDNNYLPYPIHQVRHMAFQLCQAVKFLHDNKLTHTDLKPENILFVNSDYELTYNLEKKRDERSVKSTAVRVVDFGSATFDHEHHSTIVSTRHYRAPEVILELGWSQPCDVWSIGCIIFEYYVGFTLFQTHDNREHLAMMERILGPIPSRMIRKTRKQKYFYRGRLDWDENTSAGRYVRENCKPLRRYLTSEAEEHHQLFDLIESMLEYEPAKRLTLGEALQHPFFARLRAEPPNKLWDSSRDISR
Chain of Dual specificity protein kinase CLK4 (Q9HAZ1 whole entry): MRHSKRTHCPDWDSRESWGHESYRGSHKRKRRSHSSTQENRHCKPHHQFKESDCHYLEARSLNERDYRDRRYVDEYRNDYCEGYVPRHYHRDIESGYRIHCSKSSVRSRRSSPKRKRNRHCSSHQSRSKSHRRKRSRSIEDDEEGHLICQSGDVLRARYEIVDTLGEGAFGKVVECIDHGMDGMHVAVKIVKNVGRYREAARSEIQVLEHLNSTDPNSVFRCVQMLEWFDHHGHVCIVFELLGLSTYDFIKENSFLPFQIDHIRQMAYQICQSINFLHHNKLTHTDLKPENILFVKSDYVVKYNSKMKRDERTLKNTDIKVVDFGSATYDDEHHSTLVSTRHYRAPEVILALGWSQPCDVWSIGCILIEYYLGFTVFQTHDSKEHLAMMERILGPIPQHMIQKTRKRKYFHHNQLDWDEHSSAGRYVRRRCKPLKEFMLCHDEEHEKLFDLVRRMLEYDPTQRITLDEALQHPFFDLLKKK
Chain of Dual specificity protein kinase CLK3 (P49761 whole entry): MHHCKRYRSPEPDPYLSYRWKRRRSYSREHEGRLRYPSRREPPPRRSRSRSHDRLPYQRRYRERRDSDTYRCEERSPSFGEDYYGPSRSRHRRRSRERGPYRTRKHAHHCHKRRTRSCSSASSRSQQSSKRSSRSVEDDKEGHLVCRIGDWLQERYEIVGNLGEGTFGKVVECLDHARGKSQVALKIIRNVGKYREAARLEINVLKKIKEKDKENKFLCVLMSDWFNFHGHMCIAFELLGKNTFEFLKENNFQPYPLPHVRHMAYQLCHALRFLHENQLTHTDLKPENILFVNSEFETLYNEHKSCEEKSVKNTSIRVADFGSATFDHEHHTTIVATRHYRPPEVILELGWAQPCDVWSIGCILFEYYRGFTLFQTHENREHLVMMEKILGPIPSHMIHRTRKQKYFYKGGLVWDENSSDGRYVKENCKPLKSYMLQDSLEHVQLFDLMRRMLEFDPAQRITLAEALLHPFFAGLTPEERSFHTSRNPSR

SMILES | IC50 [1] [µM] | IC50 [2] [µM] | IC50 [3] [µM] | IC50 [4] [µM] | IC50 [5] [µM] | IC50 [6] [µM] | IC50 [7] [µM] | IC50 [8] [µM] | IC50 [9] [µM] | IC50 [10] [µM] | IC50 [11] [µM] | IC50 [12] [µM] | IC50 [13] [µM] | IC50 [14] [µM] | IC50 [15] [µM] | IC50 [16] [µM] | IC50 [17] [µM] | IC50 [18] [µM] | IC50 [19] [µM] | IC50 [20] [µM]
O=C1Nc2cc(Br)ccc2/C1=C1/Nc2ccccc2/C1=N\O [6BIO] | 0.052 |  |  |  |  |  |  |  |  |  |  |  |  |  |  |  |  |  |  | 
COc1c(O)ccc2c(=O)c3c(O)cc4c(c3[nH]c12)C=CC(C)(C)O4 | 0.075 | 5.3 | 9 | 2 | > 10 | 0.17 | 0.21 | 0.09 | 1.1 | 8.2 | > 10 | 0.82 | 8.7 | 0.68 | 2.3 | 0.22 | 0.35 | 1.7 | 1.2 | 0.71
CC1(C)C=Cc2c(cc(O)c3c(=O)c4cccc(O)c4[nH]c23)O1 [ATOLAPHYLLIDINE] | 2.2 | > 10 | > 10 | > 10 | > 10 | ≥ 10 |  |  |  |  |  |  |  |  |  |  |  |  |  | 

The next lines start with results.

IC50 [1] [µM] | SMILES | IC50 [2] [µM] | IC50 [3] [µM] | IC50 [4] [µM] | IC50 [5] [µM] | IC50 [6] [µM] | IC50 [7] [µM] | IC50 [8] [µM] | IC50 [9] [µM] | IC50 [10] [µM] | IC50 [11] [µM] | IC50 [12] [µM] | IC50 [13] [µM] | IC50 [14] [µM] | IC50 [15] [µM] | IC50 [16] [µM] | IC50 [17] [µM] | IC50 [18] [µM] | IC50 [19] [µM] | IC50 [20] [µM]
5.7 | Cn1c2c(O)cccc2c(=O)c2c3occc3c3c(c21)C=CC(C)(C)O3 | > 10 | > 10 | > 10 | > 10 | 7 |  |  |  |  |  |  |  |  |  |  |  |  |  | 
> 10 | Cn1c2c(O)cccc2c(=O)c2c3c(c4c(c21)C=CC(C)(C)O4)C=C(O)C(C)(C)O3 | > 10 | > 10 | > 10 | > 10 | > 10 |  |  |  |  |  |  |  |  |  |  |  |  |  | 
